Source: ChEMBL document CHEMBL1140772, “Discovery of indenopyrazoles as EGFR and VEGFR-2 tyrosine kinase inhibitors by in silico high-throughput screening” (Bioorg Med Chem Lett, 2008)
Active and inactive are the calls of the source. The rule behind the calls is not given here.

What was measured:
[1] = target: Vascular endothelial growth factor receptor 2 (Homo sapiens, UniProt P35968); assay: Inhibition of KDR
[2] = test system: A-431; assay: Inhibition of human CDK in A431 cells assessed as inhibition of phosphorylation of Rb at 1 uM after 12 hrs; type: cell-based
[3] = test system: A-431; assay: Growth inhibition of human A431 cells overexpressing EGFR after 72 hrs by MTT assay; type: functional; conditions: A-431, 72 h
[4] = target: Receptor tyrosine-protein kinase erbB-2 (Homo sapiens) (UniProt P04626); assay: Inhibition of HER2 at 1 uM
Receptor tyrosine-protein kinase erbB-2 (Homo sapiens), sequence (P04626 whole entry): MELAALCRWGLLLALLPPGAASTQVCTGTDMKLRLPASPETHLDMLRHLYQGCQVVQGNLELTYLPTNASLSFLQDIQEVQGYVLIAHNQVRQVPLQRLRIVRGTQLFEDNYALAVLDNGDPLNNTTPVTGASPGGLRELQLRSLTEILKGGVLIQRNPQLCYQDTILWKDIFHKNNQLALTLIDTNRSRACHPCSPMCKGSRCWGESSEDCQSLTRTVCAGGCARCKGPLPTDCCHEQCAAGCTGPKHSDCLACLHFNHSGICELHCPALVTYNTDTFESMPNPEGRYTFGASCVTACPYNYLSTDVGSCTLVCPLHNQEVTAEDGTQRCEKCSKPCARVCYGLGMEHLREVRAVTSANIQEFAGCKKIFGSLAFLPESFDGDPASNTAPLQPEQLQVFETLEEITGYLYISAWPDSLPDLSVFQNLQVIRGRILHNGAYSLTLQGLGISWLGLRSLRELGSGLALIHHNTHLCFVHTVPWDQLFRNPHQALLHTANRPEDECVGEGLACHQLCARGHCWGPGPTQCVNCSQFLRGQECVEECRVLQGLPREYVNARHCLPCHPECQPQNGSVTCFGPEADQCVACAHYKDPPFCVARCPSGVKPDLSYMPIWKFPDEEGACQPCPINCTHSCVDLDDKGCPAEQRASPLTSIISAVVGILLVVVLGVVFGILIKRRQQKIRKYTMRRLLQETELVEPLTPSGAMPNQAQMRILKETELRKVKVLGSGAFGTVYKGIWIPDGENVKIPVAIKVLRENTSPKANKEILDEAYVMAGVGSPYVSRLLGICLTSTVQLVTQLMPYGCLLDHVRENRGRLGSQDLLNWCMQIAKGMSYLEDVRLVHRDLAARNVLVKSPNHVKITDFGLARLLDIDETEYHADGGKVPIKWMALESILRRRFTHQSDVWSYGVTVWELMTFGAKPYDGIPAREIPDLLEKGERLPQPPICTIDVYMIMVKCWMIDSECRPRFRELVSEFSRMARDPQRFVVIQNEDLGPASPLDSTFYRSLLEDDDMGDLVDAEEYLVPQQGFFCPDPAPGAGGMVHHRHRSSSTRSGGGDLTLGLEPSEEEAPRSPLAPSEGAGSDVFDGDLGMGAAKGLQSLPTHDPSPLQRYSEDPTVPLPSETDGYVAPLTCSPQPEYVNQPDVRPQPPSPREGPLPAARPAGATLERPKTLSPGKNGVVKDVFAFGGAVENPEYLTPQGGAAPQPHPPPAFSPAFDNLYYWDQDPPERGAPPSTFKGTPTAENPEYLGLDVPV

Vascular endothelial growth factor receptor 2, sequence (P35968 whole entry): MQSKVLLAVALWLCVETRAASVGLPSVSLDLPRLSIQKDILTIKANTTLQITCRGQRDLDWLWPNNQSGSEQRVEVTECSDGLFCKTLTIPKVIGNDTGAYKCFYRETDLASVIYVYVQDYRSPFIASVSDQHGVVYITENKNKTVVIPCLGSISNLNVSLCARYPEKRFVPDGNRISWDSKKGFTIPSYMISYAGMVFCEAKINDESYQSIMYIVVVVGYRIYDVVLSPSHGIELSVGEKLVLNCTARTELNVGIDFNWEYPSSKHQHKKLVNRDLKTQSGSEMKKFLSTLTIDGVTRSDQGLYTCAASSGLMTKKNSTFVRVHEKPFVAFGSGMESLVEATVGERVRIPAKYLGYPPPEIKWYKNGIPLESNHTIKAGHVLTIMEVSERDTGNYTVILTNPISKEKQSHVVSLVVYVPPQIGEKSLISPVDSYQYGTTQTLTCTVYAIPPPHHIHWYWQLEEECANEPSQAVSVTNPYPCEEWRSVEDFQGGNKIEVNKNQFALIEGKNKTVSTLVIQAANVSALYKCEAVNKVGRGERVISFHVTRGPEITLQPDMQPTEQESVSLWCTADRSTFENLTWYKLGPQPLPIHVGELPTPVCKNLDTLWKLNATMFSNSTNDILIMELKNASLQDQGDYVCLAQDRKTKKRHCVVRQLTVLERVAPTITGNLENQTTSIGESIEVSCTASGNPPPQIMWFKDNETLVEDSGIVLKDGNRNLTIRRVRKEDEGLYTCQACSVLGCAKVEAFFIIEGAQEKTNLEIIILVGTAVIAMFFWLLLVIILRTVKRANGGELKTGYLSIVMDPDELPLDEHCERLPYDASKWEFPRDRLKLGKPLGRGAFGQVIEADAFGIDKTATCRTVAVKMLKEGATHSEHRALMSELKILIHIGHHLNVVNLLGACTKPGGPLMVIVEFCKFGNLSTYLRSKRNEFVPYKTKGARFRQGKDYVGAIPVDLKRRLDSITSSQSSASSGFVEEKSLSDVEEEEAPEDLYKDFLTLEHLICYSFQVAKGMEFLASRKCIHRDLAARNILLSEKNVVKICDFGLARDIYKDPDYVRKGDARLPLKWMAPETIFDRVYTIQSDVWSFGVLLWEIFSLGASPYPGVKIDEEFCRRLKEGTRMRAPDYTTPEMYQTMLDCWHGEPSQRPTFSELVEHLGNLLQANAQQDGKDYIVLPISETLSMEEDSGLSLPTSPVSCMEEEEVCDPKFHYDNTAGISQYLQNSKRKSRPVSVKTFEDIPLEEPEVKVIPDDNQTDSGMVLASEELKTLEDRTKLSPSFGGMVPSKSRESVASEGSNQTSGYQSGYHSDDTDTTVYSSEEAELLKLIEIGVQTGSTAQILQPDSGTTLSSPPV

Structure (SMILES) | IC50 [1] [nM] | GI50 [3] [nM] | inhibition [4] [%] | Activity [2]
COc1ccc(-c2[nH]nc3c2C(=O)c2c(NC(=O)Nc4ccc(O)cc4)cccc2-3)cc1 |  | > 10000 | 8 | 
Nc1ccc(NC(=O)Nc2cccc3c2C(=O)c2c-3n[nH]c2-c2ccc(O)c(O)c2)cc1 |  | 4790 | 3 | 
Nc1ccc(NC(=O)Nc2cccc3c2C(=O)c2c-3n[nH]c2-c2ccc(O)cc2)cc1 | 650 | > 10000 | 7 | 
COc1ccc(-c2[nH]nc3c2C(=O)c2c(NC(=O)Nc4ccc(N)cc4)cccc2-3)cc1 |  | 1590 | 6 | 

Stronger by GI50 [3], values ahead:

IC50 [1] [nM] | GI50 [3] [nM] | inhibition [4] [%] | Structure (SMILES) | Activity [2]
380 | 62 | 28 | Nc1ccc(NC(=O)Nc2cccc3c2C(=O)c2c-3n[nH]c2-c2ccc3c(c2)OCO3)cc1 | Active
700 | 56 | 2 | O=C(Nc1ccc(O)cc1)Nc1cccc2c1C(=O)c1c-2n[nH]c1-c1ccc2c(c1)OCO2 | Active
